# Data as given in patent US11666558B2, “Methods of treating intraocular pressure with activators of Tie-2” (EyePoint Pharmaceuticals, Inc., priority 2015, dated 2023).
# “And” between values parts separate entries of the source, which are not always exact repeats. Identical values can stand only once. Counter-ions that a name gives are not always drawn.
# Assays:
# intraocular pressure [1] = test: Intraocular pressure (pneumotonometer) after repeated topical and subcutaneous administration in normotensive rabbits; format: in vivo, New Zealand White rabbits
# Method: To measure the tolerability and effect of Compound 1 (sodium salt) on intraocular pressure following repeated topical and subcutaneous administration, normotensive New Zealand White rabbits were treated with Compound 1 (sodium salt). Animals were acclimated 1 to 2 times per day to the intraocular pressure (IOP) measurement procedures prior to initiation of the study to determine baseline IOP levels. IOP acclimation was performed in the two weeks prior to study start for a total of 5 days. Animals with unacceptable IOP values were excluded from the study. Prior to taking all IOP measurements, 1 to 2 drops of a 0.5% proparacaine solution were applied to the eye as a topical anesthetic. OP measurements were performed with a pneumotonometer. Test and control formulations were administered to the animals once or twice daily topically into both eyes or subcutaneously starting on Day 1 according to TABLE 20 and TABLE 21 below. PM dosing, where applicable, was performed ˜8 hours after AM dosing. IOP measurements were performed twice (AM and PM) at baseline (prior to the start of dosing), twice (AM and PM) on Days 1 and 7, and once daily (AM) on Days 2-6 and Day 8. Prior to taking all IOP measurements, 1 to 2 drops of a 0.5% proparacaine solution were applied to the eye as a topical anesthetic. IOP measurements were performed with a pneumotonometer. AM IOP measurements were performed 2 hours after AM dosing; the only exceptions were Day 8 AM measurements, which were performed 24 hours after the final dose. PM IOP measurements were performed ˜5 hours (baseline and Day 1) or ˜4 hours (Day 7) after AM IOP measurements, prior to PM dosing, with at least 15 minutes elapsing between anesthetic application for PM IOP measurements and PM dosing. The final round of slit-lamp examinations was performed on Day 8.
# intraocular pressure [2] = test: Intraocular pressure change from baseline, Compound 1 BID at varying doses, 28 Day EOT (FIG. 1); format: in vivo, human; details: doses greater than 15 mg BID, patients with diabetic macular edema
# Method: The difference in IOP was determined at the end of the trial, which was 28 days after treatment began (28 Day EOT). Changes in IOP were determined both in the study eye and the fellow eye.
# [3] = Ocular abnormalities in the ocular pharmacokinetics study; format: in vivo, New Zealand White rabbits; details: all dose groups (topical ocular, subcutaneous, intravitreal)
# Method: Pre-screening clinical ophthalmic exams were done prior to study (includes slit-lamp biomicroscopy and indirect ophthalmoscopy). Ocular findings were scored using the McDonald-Shadduck Score System, and only animals that scored zero in all categories were used in the study.
# Concentration versus time data is plotted in FIGS. 3-16. All data are expressed as ng/g of the free drug. Samples that were below the limit of quantitation (0.2 ng/mL) were not used in the calculation of averages.
# [4] = Group 2, 0.45 mg/eye topical BID, Day 1, AM, OS
# [5] = Group 2, 0.45 mg/eye topical BID, Day 1, PM, OD
# [6] = Group 2, 0.45 mg/eye topical BID, Day 2, AM, OD
# [7] = Group 2, 0.45 mg/eye topical BID, Day 2, AM, OS
# [8] = Group 2, 0.45 mg/eye topical BID, Day 3, AM, OD
# [9] = Group 2, 0.45 mg/eye topical BID, Day 3, AM, OS
# [10] = Group 2, 0.45 mg/eye topical BID, Day 4, AM, OD
# [11] = Group 2, 0.45 mg/eye topical BID, Day 4, AM, OS
# [12] = Group 2, 0.45 mg/eye topical BID, Day 5, AM, OD
# [13] = Group 3, 1.2 mg/eye topical BID, Day 1, AM, OD
# [14] = Group 3, 1.2 mg/eye topical BID, Day 1, AM, OS
# [15] = Group 3, 1.2 mg/eye topical BID, Day 1, PM, OD
# [16] = Group 3, 1.2 mg/eye topical BID, Day 2, AM, OS
# [17] = Group 3, 1.2 mg/eye topical BID, Day 3, AM, OD
# [18] = Group 3, 1.2 mg/eye topical BID, Day 3, AM, OS
# [19] = Group 3, 1.2 mg/eye topical BID, Day 4, AM, OD
# [20] = Group 3, 1.2 mg/eye topical BID, Day 4, AM, OS
# [21] = Group 3, 1.2 mg/eye topical BID, Day 5, AM, OS
# [22] = Group 4, 1.2 mg/eye topical QD, Day 1, AM, OD
# [23] = Group 4, 1.2 mg/eye topical QD, Day 2, AM, OD
# [24] = Group 4, 1.2 mg/eye topical QD, Day 5, AM, OD
structure (smiles),measurement,setting,value
COC(=O)N[C@@H](Cc1ccccc1)C(=O)N[C@@H](Cc1ccc(NS(=O)(=O)O)cc1)c1csc(-c2cccs2)n1 [Compound 1 sodium salt],"Intraocular pressure (IOP), individual animal","intraocular pressure [1]; Group 2, 0.45 mg/eye topical BID, Day 1, AM, OD",20.3 and 23.7 and 24.0 and 20.7 and 21.7
same,"Intraocular pressure (IOP), group Average",intraocular pressure [1]; [4],23.3
same,"Intraocular pressure (IOP), individual animal",intraocular pressure [1]; [4],20.7 and 25.2 and 23.3
same,"Intraocular pressure (IOP), group Average",intraocular pressure [1]; [5],25.5
same,"Intraocular pressure (IOP), individual animal",intraocular pressure [1]; [5],24.8 and 22.0
same,"Intraocular pressure (IOP), individual animal","intraocular pressure [1]; Group 2, 0.45 mg/eye topical BID, Day 1, PM, OS",25.3
same,"Intraocular pressure (IOP), group Average",intraocular pressure [1]; [6],21.9
same,"Intraocular pressure (IOP), individual animal",intraocular pressure [1]; [6],22.0 and 22.7 and 25.0
same,"Intraocular pressure (IOP), group Average",intraocular pressure [1]; [7],22.2
same,"Intraocular pressure (IOP), individual animal",intraocular pressure [1]; [7],22.3 and 24.3
same,"Intraocular pressure (IOP), group Average",intraocular pressure [1]; [8],24.0
same,"Intraocular pressure (IOP), individual animal",intraocular pressure [1]; [8],25.0 and 24.2 and 26.0 and 23.8
same,"Intraocular pressure (IOP), group Average",intraocular pressure [1]; [9],24.5
same,"Intraocular pressure (IOP), individual animal",intraocular pressure [1]; [9],25.3 and 23.5 and 26.0 and 23.0
same,"Intraocular pressure (IOP), group Average",intraocular pressure [1]; [10],23.9
same,"Intraocular pressure (IOP), individual animal",intraocular pressure [1]; [10],23.8 and 22.0 and 26.7 and 25.7
same,"Intraocular pressure (IOP), group Average",intraocular pressure [1]; [11],24.3
same,"Intraocular pressure (IOP), individual animal",intraocular pressure [1]; [11],23.0 and 22.7 and 26.3 and 23.5 and 26.2
same,"Intraocular pressure (IOP), group Average",intraocular pressure [1]; [12],25.2
same,"Intraocular pressure (IOP), individual animal",intraocular pressure [1]; [12],22.8 and 28.0 and 20.7 and 25.7
same,"Intraocular pressure (IOP), individual animal","intraocular pressure [1]; Group 2, 0.45 mg/eye topical BID, Day 5, AM, OS",25.0 and 28.0 and 24.2 and 26.3
same,"Intraocular pressure (IOP), group Average","intraocular pressure [1]; Group 2, 0.45 mg/eye topical BID, Day 6, AM, OD",25.5
same,"Intraocular pressure (IOP), group Average","intraocular pressure [1]; Group 2, 0.45 mg/eye topical BID, Day 7, AM, OD",23.7
same,"Intraocular pressure (IOP), group Average","intraocular pressure [1]; Group 2, 0.45 mg/eye topical BID, Day 7, AM, OS",24.5
same,"Intraocular pressure (IOP), group Average",intraocular pressure [1]; [13],22.0
same,"Intraocular pressure (IOP), individual animal",intraocular pressure [1]; [13],23.2 and 24.0 and 20.2
same,"Intraocular pressure (IOP), group Average",intraocular pressure [1]; [14],23.2
same,"Intraocular pressure (IOP), individual animal",intraocular pressure [1]; [14],23.8 and 23.0 (2×)
same,"Intraocular pressure (IOP), group Average",intraocular pressure [1]; [15],24.1
same,"Intraocular pressure (IOP), individual animal",intraocular pressure [1]; [15],24.7 and 25.2
same,"Intraocular pressure (IOP), individual animal","intraocular pressure [1]; Group 3, 1.2 mg/eye topical BID, Day 1, PM, OS",24.5 (2×) and 23.7 and 25.0
same,"Intraocular pressure (IOP), individual animal","intraocular pressure [1]; Group 3, 1.2 mg/eye topical BID, Day 2, AM, OD",17.5 and 25.5
same,"Intraocular pressure (IOP), group Average",intraocular pressure [1]; [16],21.2
same,"Intraocular pressure (IOP), individual animal",intraocular pressure [1]; [16],20.2 and 24.0 and 24.5
same,"Intraocular pressure (IOP), group Average",intraocular pressure [1]; [17],20.7
same,"Intraocular pressure (IOP), individual animal",intraocular pressure [1]; [17],20.0 and 23.0 and 22.2
same,"Intraocular pressure (IOP), group Average",intraocular pressure [1]; [18],21.2
same,"Intraocular pressure (IOP), individual animal",intraocular pressure [1]; [18],20.0 and 22.7 and 23.0
same,"Intraocular pressure (IOP), group Average",intraocular pressure [1]; [19],22.8
same,"Intraocular pressure (IOP), individual animal",intraocular pressure [1]; [19],23.2 and 24.8 and 22.2
same,"Intraocular pressure (IOP), group Average",intraocular pressure [1]; [20],23.2
same,"Intraocular pressure (IOP), individual animal",intraocular pressure [1]; [20],23.3 and 24.2 and 24.5 and 22.3
same,"Intraocular pressure (IOP), individual animal","intraocular pressure [1]; Group 3, 1.2 mg/eye topical BID, Day 5, AM, OD",21.5 and 23.7
same,"Intraocular pressure (IOP), group Average",intraocular pressure [1]; [21],22.0
same,"Intraocular pressure (IOP), individual animal",intraocular pressure [1]; [21],22.3 and 23.5
same,"Intraocular pressure (IOP), group Average","intraocular pressure [1]; Group 3, 1.2 mg/eye topical BID, Day 6, AM, OS",24.7
same,"Intraocular pressure (IOP), group Average","intraocular pressure [1]; Group 3, 1.2 mg/eye topical BID, Day 7, AM, OS",22.0
same,"Intraocular pressure (IOP), group Average","intraocular pressure [1]; Group 3, 1.2 mg/eye topical BID, Day 7, PM, OD",23.7
same,IOP values compared to Group 1 (Vehicle),"intraocular pressure [1]; Group 3, 1.2 mg/eye topical BID, over the course of dosing",lower IOP values
same,"Intraocular pressure (IOP), group Average",intraocular pressure [1]; [22],21.2
same,"Intraocular pressure (IOP), individual animal",intraocular pressure [1]; [22],22.0 and 20.2
same,"Intraocular pressure (IOP), individual animal","intraocular pressure [1]; Group 4, 1.2 mg/eye topical QD, Day 1, AM, OS",22.0 and 23.3 and 21.2
same,"Intraocular pressure (IOP), individual animal","intraocular pressure [1]; Group 4, 1.2 mg/eye topical QD, Day 1, PM, OD",21.3 and 24.0
same,"Intraocular pressure (IOP), individual animal","intraocular pressure [1]; Group 4, 1.2 mg/eye topical QD, Day 1, PM, OS",22.5 and 25.5
same,"Intraocular pressure (IOP), group Average",intraocular pressure [1]; [23],20.0
same,"Intraocular pressure (IOP), individual animal",intraocular pressure [1]; [23],20.0 and 20.3
same,"Intraocular pressure (IOP), individual animal","intraocular pressure [1]; Group 4, 1.2 mg/eye topical QD, Day 2, AM, OS",21.0
same,"Intraocular pressure (IOP), individual animal","intraocular pressure [1]; Group 4, 1.2 mg/eye topical QD, Day 3, AM, OD",23.5 and 21.0
same,"Intraocular pressure (IOP), individual animal","intraocular pressure [1]; Group 4, 1.2 mg/eye topical QD, Day 3, AM, OS",20.0 and 21.2
same,"Intraocular pressure (IOP), individual animal","intraocular pressure [1]; Group 4, 1.2 mg/eye topical QD, Day 4, AM, OD",21.5 and 22.2 and 20.7
same,"Intraocular pressure (IOP), individual animal","intraocular pressure [1]; Group 4, 1.2 mg/eye topical QD, Day 4, AM, OS",20.0 and 24.3 and 23.5
same,"Intraocular pressure (IOP), group Average",intraocular pressure [1]; [24],21.0
same,"Intraocular pressure (IOP), individual animal",intraocular pressure [1]; [24],23.8
same,"Intraocular pressure (IOP), individual animal","intraocular pressure [1]; Group 4, 1.2 mg/eye topical QD, Day 5, AM, OS",22.7 and 22.0
same,"Intraocular pressure (IOP), group Average","intraocular pressure [1]; Group 4, 1.2 mg/eye topical QD, Day 7, AM, OS",23.0
same,IOP values compared to Group 1 (Vehicle),"intraocular pressure [1]; Group 4, 1.2 mg/eye topical QD, over the course of dosing",lower IOP values
same,IOP values compared to Group 1 (Vehicle),"intraocular pressure [1]; Group 5, 10 mg/kg subcutaneous BID",Lower IOP values compared to Group 1 were also seen in the early part of the study
same,"Intraocular pressure (IOP), group Average","intraocular pressure [1]; Group 5, 10 mg/kg subcutaneous BID, Day 2, AM, OD",21.5
same,"Intraocular pressure (IOP), group Average","intraocular pressure [1]; Group 5, 10 mg/kg subcutaneous BID, Day 3, AM, OD",20.7
same,"Intraocular pressure (IOP), group Average","intraocular pressure [1]; Group 5, 10 mg/kg subcutaneous BID, Day 3, AM, OS",21.3
same,"Intraocular pressure (IOP), group Average","intraocular pressure [1]; Group 5, 10 mg/kg subcutaneous BID, Day 4, AM, OD",21.9
same,"Intraocular pressure (IOP), group Average","intraocular pressure [1]; Group 5, 10 mg/kg subcutaneous BID, Day 6, AM, OD",24.5
same,"Intraocular pressure (IOP), group Average","intraocular pressure [1]; Group 5, 10 mg/kg subcutaneous BID, Day 6, AM, OS",25.0
same,"Intraocular pressure (IOP), group Average","intraocular pressure [1]; Group 5, 10 mg/kg subcutaneous BID, Day 7, AM, OS",23.9
same,"Intraocular pressure (IOP), group Average","intraocular pressure [1]; Group 5, 10 mg/kg subcutaneous BID, Day 7, PM, OD",24.1
same,"Intraocular pressure (IOP), group Average","intraocular pressure [1]; Group 5, 10 mg/kg subcutaneous BID, Day 8, AM, OS",24.0
same,apparent reduction in intraocular pressure values,"intraocular pressure [1]; Groups 3 and 4 (1.2 mg/eye topical BID, QD), Day 7 and Day 8 (24 hours after the end of dosing)",persisted
same,effect on intraocular pressure,"intraocular pressure [1]; topically administered, 1.2 mg/eye dose, QD or BID",observed to reduce intraocular pressure
COC(=O)N[C@@H](Cc1ccccc1)C(=O)N[C@@H](Cc1ccc(NS(=O)(=O)O)cc1)c1csc(-c2cccs2)n1 [Compound 1],intraocular pressure (IOP) relative to pre-treatment baseline,intraocular pressure [2],decreased IOP
same,ocular abnormalities,[3],No ocular abnormalities
